Test results from patent publication US5254801A, “Heterologous dominant conditional lethal gene which is a phosphonate monoester hydrolase and use thereof in plants” (Monsanto Company, priority 1990, dated 1993).

How the values were obtained:
[1] = test system: PG2982; experiment: Growth on glyceryl glyphosate as sole phosphate source; assay type: cell-based, Pseudomonas caryophilli; conditions: strain PG2982; 0.2 mM in DF minimal medium
Experimental: (§1) Bacteria capable of degrading glyphosate are known (Hallas et al., 1988; Malik et al., 1989; and Moore et al., 1983; Heitkamp et al., 1990). Five of these bacteria (PG2482, LBAA, T10, T12 and CP4) and four strains of E. coli were screened for the rapid degradation of glyceryl glyphosate into inorganic phosphate. The bacteria were inoculated into 2 ml Dworkin-Foster(DF) minimal medium containing glucose, sodium gluconate and potassium citrate (each 0.1%) as carbon source and containing 0.2 mM glyceryl glyphosate as a phosphate source. The Dworkin-Foster minimal medium was made by combining 1 liter sterile H2 O with 1 ml each of A, B, C, E and F, 10 ml D, C-sources to final concentration of 0.1% each and P-source to 0.2 mM.
Bacteria which grew in this medium using glyceryl glyphosate as a sole phosphate source had the ability to cleave both the ester and the phosphonate bond to release the free phosphate. For these bacteria to be useful in the present invention, the first step in the mineralization of glyceryl glyphosate needed is the hydrolysis of the phosphonate ester. […] After a three hour incubation period, the cells were pelleted in a microfuge and the supernatant injected onto an HPLC anion exchange column and glyphosate analyzed as described above. […] The pellet extract was then analyzed for glyphosate product as described above. […]

[2] = test system: T12; experiment: as above; assay type: cell-based; conditions: strain T12; 0.2 mM in DF minimal medium
Experimental: as §1
(§2) Bacteria which grew in this medium using glyceryl glyphosate as a sole phosphate source had the ability to cleave both the ester and the phosphonate bond to release the free phosphate. For these bacteria to be useful in the present invention, the first step in the mineralization of glyceryl glyphosate needed is the hydrolysis of the phosphonate ester. Each of the three bacteria which utilized glyceryl glyphosate as a phosphate source were then assayed for a phosphonate monoester hydrolase activity using an in vivo (3-^14 C-) glyceryl glyphosate assay. A 150 ml culture of each bacteria was grown in DF minimal medium with 0.2 mM HK2 PO4 as a phosphate source in a 500 ml flask, 30° C., with shaking. The bacteria were pelleted by centrifugation at 5,000×g for 10 min and resuspended at 10 mg fresh weight/ml. An assay mix included 50 μl cells plus 10 μl (3-^14 C-) glyceryl glyphosate (10,000 cpm/μl) and kept at 30° C. with shaking. After a three hour incubation period, the cells were pelleted in a microfuge and the supernatant injected onto an HPLC anion exchange column and glyphosate analyzed as described above. The pellet was washed twice with 1 ml 10 mM HEPES, pH 7.0, and resuspended in 25 μl buffer. The cells were lysed with 25 μl quench and the debris pelleted in a microfuge. The pellet extract was then analyzed for glyphosate product as described above. Glyphosate was found in the pellet extracts of these three bacteria indicating the presence of a phosphonate monoester hydrolase activity in these organisms.

[3] = test system: LBAA; experiment: as above; assay type: cell-based; conditions: strain LBAA; 0.2 mM in DF minimal medium
Experimental: as §1, §2

[4] = test system: E. coli MM294, JM101, JM101/MPU+, SR200/MPU; experiment: as above; assay type: cell-based; conditions: E. coli strains; 0.2 mM in DF minimal medium
Experimental: as §1, §2

[5] = test system: E. coli MM294, JM101, JM101/MPU+, SR200/MPU; experiment: In vivo (3-14C-) glyceryl glyphosate hydrolysis assay in whole cells; assay type: cell-based; conditions: E. coli strains; three hour incubation, 30° C.

Q: For `O=C(O)CNCP(=O)(O)OCC(O)CO` (centres unmarked) [glyceryl glyphosate, glycine, N-([hydroxy (2,3 dihydroxy propoxy)phosphonyl]methyl)], which “Glyceryl Glyphosate as Phosphate Source” value [1] is on record?
A: The value was “Yes”.

Q: What about the “Glyceryl Glyphosate as Phosphate Source” value [2] of the same compound?
A: The value was “No”.

Q: What about the “Glyceryl Glyphosate as Phosphate Source” value [3] of the same compound?
A: The value was “Yes”.

Q: What about the “Glyceryl Glyphosate as Phosphate Source” value [4] of the same compound?
A: Its value is “No”.

Q: What about the “In vivo Hydrolysis of Glyceryl Glyphosate into Glyphosate” value [5] of the same compound?
A: Its value is “No”.
